Data as given in patent publication US20110039825A1, “LIGANDS OF ALPHA-ADRENOCEPTORS, DOPAMINE, HISTAMINE, IMIDAZOLINE AND SEROTONIN RECEPTORS AND THEIR USE” (Alla Chem, LLC, priority 2007, published 2011).
pIC50, pKi: −log10 of the molar value.

What was measured:
adrenergic receptor α1B = molecular target: T1, adrenergic receptor α1B (Rattus norvegicus, UniProt P15823); test: radioligand binding to adrenergic receptor α1B ([3H] Prazosin); conditions: 10 μM ligand
T1 construct: membrane species from rat liver (rat of Wistar breed) are prepared; from tissue; host or cells: rat (Wistar) liver membranes
T1 sequence (P15823 1-515): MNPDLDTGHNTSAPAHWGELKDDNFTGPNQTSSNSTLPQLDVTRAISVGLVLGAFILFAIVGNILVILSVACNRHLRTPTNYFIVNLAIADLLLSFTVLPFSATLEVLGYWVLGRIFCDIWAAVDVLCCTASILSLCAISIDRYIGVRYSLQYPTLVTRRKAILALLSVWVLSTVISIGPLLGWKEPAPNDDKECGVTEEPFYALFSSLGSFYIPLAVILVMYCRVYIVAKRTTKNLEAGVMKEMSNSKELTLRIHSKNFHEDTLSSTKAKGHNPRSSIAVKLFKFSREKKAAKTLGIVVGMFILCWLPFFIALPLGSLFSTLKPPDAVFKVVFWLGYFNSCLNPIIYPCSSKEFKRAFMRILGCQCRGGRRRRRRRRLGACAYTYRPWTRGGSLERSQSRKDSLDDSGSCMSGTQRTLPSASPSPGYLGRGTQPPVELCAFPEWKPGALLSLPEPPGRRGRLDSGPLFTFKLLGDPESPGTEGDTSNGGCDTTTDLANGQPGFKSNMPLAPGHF
Description: Species heterogeneity of hepatic α1A-, α1B-, and α1C-subtypes. Biochem Biophys Res Commun. 186:760-7676 1992]. […] Prazosin is used as positive control.

human α1D receptor = molecular target: T2, human α1D receptor (Homo sapiens, UniProt P25100); test: radioligand binding to adrenergic receptor α1D ([3H] Prazosin); conditions: 10 μM ligand
T2 construct: expressed in transfected cells; host or cells: HEK-293
T2 sequence (P25100 1-572): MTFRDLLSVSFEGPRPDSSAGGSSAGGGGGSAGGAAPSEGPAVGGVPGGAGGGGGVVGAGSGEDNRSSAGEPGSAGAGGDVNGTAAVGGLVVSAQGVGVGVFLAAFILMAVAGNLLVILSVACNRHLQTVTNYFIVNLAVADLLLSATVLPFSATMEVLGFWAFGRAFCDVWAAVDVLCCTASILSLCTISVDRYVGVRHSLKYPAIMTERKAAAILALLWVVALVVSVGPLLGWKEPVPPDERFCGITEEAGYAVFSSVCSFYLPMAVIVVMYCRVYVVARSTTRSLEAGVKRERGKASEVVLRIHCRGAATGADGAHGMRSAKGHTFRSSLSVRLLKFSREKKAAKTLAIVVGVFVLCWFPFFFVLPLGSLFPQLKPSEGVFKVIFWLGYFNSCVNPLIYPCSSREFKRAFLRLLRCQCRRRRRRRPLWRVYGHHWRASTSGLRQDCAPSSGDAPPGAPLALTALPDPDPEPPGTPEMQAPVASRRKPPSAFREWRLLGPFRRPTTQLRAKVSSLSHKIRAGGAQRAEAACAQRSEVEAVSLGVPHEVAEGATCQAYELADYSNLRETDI
Description: 6-C. […] For this purpose sDNA of human α1D receptor is expressed in HEK-293 cells, as it was described in [T L Theroux, T A Esbenshade, R D Peavy and K P Minneman. Coupling efficiencies of human alpha 1-adrenergic receptor subtypes: titration of receptor density and responsiveness with inducible and repressible expression vectors. Mol. Pharmacol.; 50: 1376-1387, 1996]. […] Prazosin is used as positive control.

human D2S receptor = molecular target: T3, human D2S receptor (Homo sapiens, UniProt P14416); test: radioligand binding to dopamine receptor D2S ([3H] Spiperone); conditions: 10 μM ligand
T3 construct: expressed in transfected cells; host or cells: CHO
Description: 7-C. […] For this purpose sDNA of human D2S receptor is expressed in CHO cells, as described in [Hayes G, Biden T J, Selbie L A and Shine J, Structural subtypes of the dopamine D2 receptor are functionally distinct. […] Mol. Endocrinol. […] Mol. Endocrinol. […] Spiperone is used as positive control.

human D3 receptor = molecular target: T4, human D3 receptor (Homo sapiens, UniProt P35462); test: radioligand binding to dopamine receptor D3 ([3H] Spiperone); conditions: 10 μM ligand
T4 construct: expressed in transfected cells; host or cells: CHO
Description: For this purpose sDNA of human D3 receptor is expressed in CHO cells, as it was described in [Sokoloff P, Giros B, Martres M-P, Bouthenet M-L and Schwartz J-C. Molecular cloning and characterization of novel dopamine receptor (D3) as target for neuroleptics. Nature. […] Molecular cloning and characterization of novel dopamine receptor (D3) as target for neuroleptics. Nature. […] Spiperone is used as positive control.

human H1 receptor = molecular target: T5, human H1 receptor (Homo sapiens, UniProt P35367); test: radioligand binding to histamine receptor H1 ([3H] Pyrilamine); conditions: 10 μM ligand
T5 construct: expressed in transfected cells; host or cells: CHO-K1
Description: Biochem Biophys Res Comm. 197(3): 1601-1608, 1993]. […] Biochem Biophys Res Comm. 197(3): 1601-1608, 1993].
Pyrilamine is used as positive control.

human H2 receptor = molecular target: T6, human H2 receptor (Homo sapiens, UniProt P25021); test: radioligand binding to histamine receptor H2 ([125I] Aminopotentidine); conditions: 10 μM ligand
T6 construct: expressed in transfected cells; host or cells: CHO-K1
Description: Proc Natl Acad Sci USA. 87(5): 1658-1662, 1990]. […] Proc Natl Acad Sci USA. 87(5): 1658-1662, 1990]. […] Tiotidine is used as positive control.

recombinant human 5-HT1A = molecular target: T7, recombinant human 5-HT1A (Homo sapiens, UniProt P08908); test: radioligand binding to serotonin receptor 5-HT1A ([3H] 8-OH-DPAT); conditions: ligand concentration 1 μM
T7 construct: expressed in transfected cells; host or cells: CHO
T7 sequence (P08908 1-422): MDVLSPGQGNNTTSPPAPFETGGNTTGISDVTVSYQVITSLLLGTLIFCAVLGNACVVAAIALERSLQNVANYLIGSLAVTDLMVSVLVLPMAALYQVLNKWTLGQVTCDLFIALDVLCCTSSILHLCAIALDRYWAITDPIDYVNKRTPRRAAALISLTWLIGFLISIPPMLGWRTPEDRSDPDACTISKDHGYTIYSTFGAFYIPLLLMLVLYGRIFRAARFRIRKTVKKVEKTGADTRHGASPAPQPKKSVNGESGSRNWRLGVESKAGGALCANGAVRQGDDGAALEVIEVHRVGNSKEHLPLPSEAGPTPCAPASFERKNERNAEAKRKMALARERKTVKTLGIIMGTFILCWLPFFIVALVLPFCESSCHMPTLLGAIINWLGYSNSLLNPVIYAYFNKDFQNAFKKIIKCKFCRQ
Description: J Pharmacol Exp Ther. 306(1): 301-309, 2003]. […] Metergoline is used as positive control.

[1] = molecular target: T8, recombinant human 5-HT6 receptor (Homo sapiens, UniProt P50406); test: radioligand binding to serotonin receptor 5-HT6 ([3H] Lysergic acid diethylamide)
T8 construct: expressed in transfected cells; host or cells: HeLa
Description: Mol. Pharmacol. 43:320-327, 1993]. […] Methiothepin is used as positive control.

human D4.2 receptor = molecular target: T9, human D4.2 receptor (Homo sapiens, UniProt P21917, DEL265-296); test: radioligand binding to dopamine receptor D4.2 ([3H] Spiperone); conditions: 10 μM ligand
T9 sequence (P21917 with tags, fused parts or gaps DEL265-296): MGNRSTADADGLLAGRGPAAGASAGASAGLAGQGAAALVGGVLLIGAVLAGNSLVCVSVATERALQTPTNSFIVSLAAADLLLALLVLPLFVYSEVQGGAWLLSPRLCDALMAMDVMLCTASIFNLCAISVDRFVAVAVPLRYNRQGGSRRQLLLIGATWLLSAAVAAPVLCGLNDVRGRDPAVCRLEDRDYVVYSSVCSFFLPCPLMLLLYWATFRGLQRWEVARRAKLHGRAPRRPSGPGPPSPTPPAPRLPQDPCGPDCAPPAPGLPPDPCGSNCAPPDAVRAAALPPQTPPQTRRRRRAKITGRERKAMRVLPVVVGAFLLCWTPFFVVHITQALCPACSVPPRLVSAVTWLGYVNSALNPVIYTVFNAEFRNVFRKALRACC
Description: Screening of the disclosed compounds for potential ability to interact with dopamine receptor D4.2 is carried out by method of radioligand binding. […] From the cells transfected in this way membrane species are prepared by homogenization of these cells in glass homogenizer with the subsequent separation of plasmatic membranes from cell nuclei, mitochondrias and cell wreckages by differential centrifugation. […] After incubation samples are filtered in vacuo on glass-microfiber filters G/F (Millipor, USA), filters are washed three times with cold solution of medium and radioactivity is measured by scintillation counter MicroBeta 340 (Perkin Elmer, USA). Nonspecific binding which makes up 10% of the overall binding is determined by incubation of membrane species with radioligand in the presence of 10 μM of Haloperidol.
Spiperone is used as positive control. Tested compounds' binding to the receptor is determined by their ability to displace radioligand and expressed in percent of displacement (% I). Values of % I are calculated according to the following equation:
wherein: TA—is overall radioactivity in the presence of radioligand only, CA—is radioactivity in the presence of radioligand and tested compound and NA—is radioactivity in the presence of radioligand and Haloperidol (10 μM).

[2] = molecular target: T10, recombinant human 5-HT2A receptor (Homo sapiens, UniProt P28223); test: radioligand binding to serotonin receptor 5-HT2A ([3H] Ketanserin)
T10 construct: expressed in transfected cells; host or cells: CHO-K1
Description: 9-C. […] J. Neurochem. […] Ketanserin is used as positive control. […] Values of % I is calculated according to the following equation: […]

[3] = molecular target: T11, recombinant human 5-HT2B receptor (Homo sapiens, UniProt P41595); test: radioligand binding to serotonin receptor 5-HT2B ([3H] Lysergic acid diethylamide)
T11 construct: expressed in transfected cells; host or cells: CHO-K1

human 5-HT7 receptor = molecular target: T12, human 5-HT7 receptor (Homo sapiens, UniProt P34969); test: radioligand binding to serotonin receptor 5-HT7 ([3H] Lysergic acid diethylamide); conditions: ligand concentration 1 μM
T12 construct: expressed in transfected cells; host or cells: CHO
Description: For this purpose sDNA of human 5-HT7 receptor is expressed in CHO cells as it was described in [Shen Y, Monsma F J Jr, Metcalf M A, Jose P A, Hamblin M W, and Sibley DR. […] J. Biol. Chem. 1993, 268, 18200-18204]. […] J. Pharmacol. Exp. Ther. 1994, 268:1403-1410]. […] Methiothepin is used as positive control.

imidazoline receptor I2 = test: radioligand binding to imidazoline receptor I2 ([3H] Idazoxan); parameters: species or system rat; conditions: 10 μM ligand
Description: Determination of investigated compounds' binding to imidazoline I2 receptor is carried out according to the method described in [Brown C M, MacKinnon A C, McGrath J C, Spedding M and Kilpatrick A T, a2-Adrenoceptor subtypes and imidazoline-like binding in the rat brain. Br J. Pharmacol. 99:803-809, 1990]. […] Idazoxan is used as positive control.

T8 sequence (P50406 whole entry): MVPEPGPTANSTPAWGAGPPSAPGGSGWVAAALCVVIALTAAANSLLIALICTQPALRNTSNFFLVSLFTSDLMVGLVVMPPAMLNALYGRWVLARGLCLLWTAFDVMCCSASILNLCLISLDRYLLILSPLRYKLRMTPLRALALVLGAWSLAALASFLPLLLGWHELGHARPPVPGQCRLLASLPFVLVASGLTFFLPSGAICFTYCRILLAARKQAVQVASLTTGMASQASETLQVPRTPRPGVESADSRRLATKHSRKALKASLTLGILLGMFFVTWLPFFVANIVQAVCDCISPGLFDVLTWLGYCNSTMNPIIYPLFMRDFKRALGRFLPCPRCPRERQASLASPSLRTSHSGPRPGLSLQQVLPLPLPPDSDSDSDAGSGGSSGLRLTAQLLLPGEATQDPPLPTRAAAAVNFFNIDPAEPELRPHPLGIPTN
T11 sequence (P41595 whole entry): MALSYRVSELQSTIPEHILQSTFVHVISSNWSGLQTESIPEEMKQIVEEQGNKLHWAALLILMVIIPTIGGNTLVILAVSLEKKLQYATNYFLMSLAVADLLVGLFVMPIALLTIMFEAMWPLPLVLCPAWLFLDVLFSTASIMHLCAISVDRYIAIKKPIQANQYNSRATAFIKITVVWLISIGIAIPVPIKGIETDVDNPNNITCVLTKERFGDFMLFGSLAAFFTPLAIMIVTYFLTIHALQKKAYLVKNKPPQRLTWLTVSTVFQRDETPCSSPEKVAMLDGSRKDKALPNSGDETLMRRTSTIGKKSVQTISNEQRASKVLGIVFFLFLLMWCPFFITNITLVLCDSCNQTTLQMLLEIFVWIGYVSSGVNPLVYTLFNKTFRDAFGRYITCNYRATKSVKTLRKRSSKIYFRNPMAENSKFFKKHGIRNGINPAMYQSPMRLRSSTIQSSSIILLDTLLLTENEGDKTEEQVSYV
T10 sequence (P28223 whole entry): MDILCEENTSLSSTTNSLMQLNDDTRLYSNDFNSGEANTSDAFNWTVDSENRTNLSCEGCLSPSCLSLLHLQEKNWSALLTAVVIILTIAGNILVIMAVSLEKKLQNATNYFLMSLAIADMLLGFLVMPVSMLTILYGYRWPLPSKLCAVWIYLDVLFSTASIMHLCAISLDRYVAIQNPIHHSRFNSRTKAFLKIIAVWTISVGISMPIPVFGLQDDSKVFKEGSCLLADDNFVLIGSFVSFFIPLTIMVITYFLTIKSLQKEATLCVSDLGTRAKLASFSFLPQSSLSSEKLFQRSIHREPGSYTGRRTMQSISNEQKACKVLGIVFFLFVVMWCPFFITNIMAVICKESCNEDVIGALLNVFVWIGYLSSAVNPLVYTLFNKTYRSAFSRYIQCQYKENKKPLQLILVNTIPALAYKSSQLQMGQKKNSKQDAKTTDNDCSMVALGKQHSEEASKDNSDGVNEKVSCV
T6 sequence (P25021 whole entry): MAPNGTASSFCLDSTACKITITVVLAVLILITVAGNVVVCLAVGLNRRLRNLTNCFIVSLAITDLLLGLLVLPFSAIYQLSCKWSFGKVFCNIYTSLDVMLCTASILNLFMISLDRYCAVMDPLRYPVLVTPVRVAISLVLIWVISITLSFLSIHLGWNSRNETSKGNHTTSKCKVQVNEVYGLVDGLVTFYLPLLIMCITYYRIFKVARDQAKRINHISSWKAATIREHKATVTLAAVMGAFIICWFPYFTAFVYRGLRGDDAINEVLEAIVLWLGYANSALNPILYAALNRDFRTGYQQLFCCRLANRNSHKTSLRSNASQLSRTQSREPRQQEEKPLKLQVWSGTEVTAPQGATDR
T5 sequence (P35367 whole entry): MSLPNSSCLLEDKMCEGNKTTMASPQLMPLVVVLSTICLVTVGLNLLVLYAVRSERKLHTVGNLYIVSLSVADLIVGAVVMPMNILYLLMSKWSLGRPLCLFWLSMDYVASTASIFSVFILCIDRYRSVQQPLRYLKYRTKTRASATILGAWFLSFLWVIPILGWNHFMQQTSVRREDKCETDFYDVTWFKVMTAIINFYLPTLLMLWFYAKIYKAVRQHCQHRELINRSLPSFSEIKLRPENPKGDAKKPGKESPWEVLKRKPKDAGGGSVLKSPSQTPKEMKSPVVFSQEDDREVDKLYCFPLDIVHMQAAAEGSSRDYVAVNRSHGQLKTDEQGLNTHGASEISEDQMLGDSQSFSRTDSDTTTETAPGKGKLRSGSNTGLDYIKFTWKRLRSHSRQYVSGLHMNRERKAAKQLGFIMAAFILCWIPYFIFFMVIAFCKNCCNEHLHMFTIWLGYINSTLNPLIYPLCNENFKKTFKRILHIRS
T12 sequence (P34969 whole entry): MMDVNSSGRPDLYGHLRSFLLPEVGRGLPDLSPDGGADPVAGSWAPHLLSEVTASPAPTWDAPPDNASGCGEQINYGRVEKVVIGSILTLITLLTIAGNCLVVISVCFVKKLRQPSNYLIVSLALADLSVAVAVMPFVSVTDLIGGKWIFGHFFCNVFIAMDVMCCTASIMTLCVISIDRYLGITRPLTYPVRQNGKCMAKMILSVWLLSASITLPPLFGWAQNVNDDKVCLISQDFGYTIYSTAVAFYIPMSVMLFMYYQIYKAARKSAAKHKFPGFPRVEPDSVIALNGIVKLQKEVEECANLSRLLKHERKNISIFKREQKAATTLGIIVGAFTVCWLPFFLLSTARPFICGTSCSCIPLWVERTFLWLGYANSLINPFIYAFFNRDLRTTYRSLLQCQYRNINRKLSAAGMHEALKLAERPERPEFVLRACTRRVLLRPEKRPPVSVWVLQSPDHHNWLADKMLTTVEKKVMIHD
T3 sequence (P14416 1-414 isoform P14416-2): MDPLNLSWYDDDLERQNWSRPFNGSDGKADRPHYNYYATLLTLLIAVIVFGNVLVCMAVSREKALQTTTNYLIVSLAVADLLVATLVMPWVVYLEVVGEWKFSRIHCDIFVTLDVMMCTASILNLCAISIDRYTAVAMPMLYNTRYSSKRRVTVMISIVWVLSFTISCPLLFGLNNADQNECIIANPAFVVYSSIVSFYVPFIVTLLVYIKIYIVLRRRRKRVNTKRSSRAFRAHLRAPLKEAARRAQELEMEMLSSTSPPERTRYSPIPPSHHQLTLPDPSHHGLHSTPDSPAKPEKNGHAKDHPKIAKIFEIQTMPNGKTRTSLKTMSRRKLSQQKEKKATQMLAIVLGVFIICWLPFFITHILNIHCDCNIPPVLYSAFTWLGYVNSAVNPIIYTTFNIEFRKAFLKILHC
T4 sequence (P35462 whole entry): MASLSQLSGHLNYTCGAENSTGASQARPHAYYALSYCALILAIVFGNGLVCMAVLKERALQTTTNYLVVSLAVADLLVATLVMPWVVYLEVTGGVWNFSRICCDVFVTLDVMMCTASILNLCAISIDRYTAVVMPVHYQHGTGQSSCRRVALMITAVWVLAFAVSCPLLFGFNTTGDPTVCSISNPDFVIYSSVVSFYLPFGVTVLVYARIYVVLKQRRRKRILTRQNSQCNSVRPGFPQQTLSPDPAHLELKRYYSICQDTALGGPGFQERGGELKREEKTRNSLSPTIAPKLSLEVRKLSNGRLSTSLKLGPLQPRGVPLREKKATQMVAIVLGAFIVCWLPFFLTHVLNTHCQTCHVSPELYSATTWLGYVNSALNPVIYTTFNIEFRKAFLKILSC

Structure (SMILES)	α-Adrenoceptor α1B, % inhibition (adrenergic receptor α1B)	α-Adrenoceptor α1D, % inhibition (human α1D receptor)	Dopamine receptor D2S, % inhibition (human D2S receptor)	Dopamine receptor D3, % inhibition (human D3 receptor)	Histamine receptor H1, % inhibition (human H1 receptor)	Histamine receptor H2, % inhibition (human H2 receptor)	inhibition at 1 µM (recombinant human 5-HT1A)	inhibition at 1 µM ([1]; ligand concentration 1 μM, read-out: 5-HT6 % inhibition)	Dopamine receptor D4.2, % inhibition (human D4.2 receptor)	pIC50 [2]	pKi [2]	nH 5-HT2A [2]	nH 5-HT2B [3]	pIC50 ([3]; read-out: IC50 5-HT2B)	pKi ([3]; read-out: Ki 5-HT2B)	pIC50 [1]	pKi [1]	nH 5-HT6 [1]	inhibition at 1 µM (human 5-HT7 receptor)	imidazoline I2 receptor % inhibition (imidazoline receptor I2)
Cc1ccc2c(c1)[C@H]1CN(C)CCC[C@@H]1N2CCc1ccc(C)nc1 (relative stereo) [1.6.2(11)]	94%	90%	31%	36%	100%	76%	55%	93%	6%											
Cc1ccc(S(=O)(=O)n2c3c(c4cc(C)ccc42)CN(C)CCC3)cc1.Cl [1.8.1(3)•HCl]		55%			95%	82%				7.65	8.19	1.01	0.784	6.50	6.69	7.46	7.80	1.07	99%	17%
